Data as given in ChEMBL document CHEMBL4834486 (Bioorg Med Chem, 2021).
pIC50: −log10 of the molar value. Activity calls are given as the source filed them. The rule behind the calls is not given here.

Experiments:
MCF7 = assay: Antiproliferative activity against human MCF7 cells assessed as inhibition of cell proliferation measured after 72 hrs by CCK-8 assay; type: functional, cell-based; conditions: MCF7, 72 h
MDA-MB-231 [1] = assay: Antiproliferative activity against human MDA-MB-231 cells assessed as inhibition of cell proliferation measured after 72 hrs by CCK-8 assay; type: functional, cell-based; conditions: MDA-MB-231, 72 h
MCF-10A = assay: Cytotoxicity against human MCF-10A cells assessed as inhibition of cell proliferation measured after 72 hrs by CCK-8 assay; type: cell-based
MDA-MB-231 [2] = assay: Cell cycle arrest in human MDA-MB-231 cells assessed as accumulation of cells at G1 phase at 1.25 uM measured after 72 hrs by PI staining based flow cytometry method (reference value: 51.58%); type: functional
MDA-MB-231 [3] = assay: Cell cycle arrest in human MDA-MB-231 cells assessed as accumulation of cells at S phase at 1.25 uM measured after 72 hrs by PI staining based flow cytometry method (reference value: 36.19%); type: functional
MDA-MB-231 [4] = assay: Cell cycle arrest in human MDA-MB-231 cells assessed as accumulation of cells at G2/M phase at 1.25 uM measured after 72 hrs by PI staining based flow cytometry method (reference value: 12.24%); type: functional
MDA-MB-231 [5] = assay: Cell cycle arrest in human MDA-MB-231 cells assessed as accumulation of cells at G1 phase at 2.5 uM measured after 72 hrs by PI staining based flow cytometry method (reference value: 51.58%); type: functional
MDA-MB-231 [6] = assay: Cell cycle arrest in human MDA-MB-231 cells assessed as accumulation of cells at S phase at 2.5 uM measured after 72 hrs by PI staining based flow cytometry method (reference value: 36.19%); type: functional
MDA-MB-231 [7] = assay: Cell cycle arrest in human MDA-MB-231 cells assessed as accumulation of cells at G2/M phase at 2.5 uM measured after 72 hrs by PI staining based flow cytometry method (reference value: 12.24%); type: functional
MDA-MB-231 [8] = assay: Cell cycle arrest in human MDA-MB-231 cells assessed as accumulation of cells at G1 phase at 5 uM measured after 72 hrs by PI staining based flow cytometry method (reference value: 51.58%); type: functional
MDA-MB-231 [9] = assay: Cell cycle arrest in human MDA-MB-231 cells assessed as accumulation of cells at S phase at 5 uM measured after 72 hrs by PI staining based flow cytometry method (reference value: 36.19%); type: functional
MDA-MB-231 [10] = assay: Cell cycle arrest in human MDA-MB-231 cells assessed as accumulation of cells at G2/M phase at 5 uM measured after 72 hrs by PI staining based flow cytometry method (reference value: 12.24%); type: functional
MDA-MB-231 [11] = assay: Induction of apoptosis in human MDA-MB-231 cells assessed as viable cells at 1.25 uM measured after 72 hrs by Annexin V-FITC/PI staining based flow cytometry method (reference value: 93.27%); type: functional; conditions: read-out: Activity
MDA-MB-231 [12] = assay: Induction of apoptosis in human MDA-MB-231 cells assessed as early apoptotic cells at 1.25 uM measured after 72 hrs by Annexin V-FITC/PI staining based flow cytometry method (reference value: 4.42%); type: functional
MDA-MB-231 [13] = assay: Induction of apoptosis in human MDA-MB-231 cells assessed as late apoptotic cells at 1.25 uM measured after 72 hrs by Annexin V-FITC/PI staining based flow cytometry method (reference value: 1.34%); type: functional
MDA-MB-231 [14] = assay: Induction of apoptosis in human MDA-MB-231 cells assessed as necrotic cells at 1.25 uM measured after 72 hrs by Annexin V-FITC/PI staining based flow cytometry method (reference value: 0.97%); type: functional
MDA-MB-231 [15] = assay: Induction of apoptosis in human MDA-MB-231 cells assessed as viable cells at 2.5 uM measured after 72 hrs by Annexin V-FITC/PI staining based flow cytometry method (reference value: 93.27%); type: functional; conditions: read-out: Activity
MDA-MB-231 [16] = assay: Induction of apoptosis in human MDA-MB-231 cells assessed as early apoptotic cells at 2.5 uM measured after 72 hrs by Annexin V-FITC/PI staining based flow cytometry method (reference value: 4.42%); type: functional
MDA-MB-231 [17] = assay: Induction of apoptosis in human MDA-MB-231 cells assessed as late apoptotic cells at 2.5 uM measured after 72 hrs by Annexin V-FITC/PI staining based flow cytometry method (reference value: 1.34%); type: functional
MDA-MB-231 [18] = assay: Induction of apoptosis in human MDA-MB-231 cells assessed as necrotic cells at 2.5 uM measured after 72 hrs by Annexin V-FITC/PI staining based flow cytometry method (reference value: 0.97%); type: functional
MDA-MB-231 [19] = assay: Induction of apoptosis in human MDA-MB-231 cells assessed as viable cells at 5 uM measured after 72 hrs by Annexin V-FITC/PI staining based flow cytometry method (reference value: 93.27%); type: functional; conditions: read-out: Activity
MDA-MB-231 [20] = assay: Induction of apoptosis in human MDA-MB-231 cells assessed as early apoptotic cells at 5 uM measured after 72 hrs by Annexin V-FITC/PI staining based flow cytometry method (reference value: 4.42%); type: functional
MDA-MB-231 [21] = assay: Induction of apoptosis in human MDA-MB-231 cells assessed as late apoptotic cells at 5 uM measured after 72 hrs by Annexin V-FITC/PI staining based flow cytometry method (reference value: 1.34%); type: functional
MDA-MB-231 [22] = assay: Induction of apoptosis in human MDA-MB-231 cells assessed as necrotic cells at 5 uM measured after 72 hrs by Annexin V-FITC/PI staining based flow cytometry method (reference value: 0.97%); type: functional
MDA-MB-231 [23] = assay: Induction of ROS generation in human MDA-MB-231 cells at 1.25 uM measured after 72 hrs by DCFH-DA staining based flow cytomtery (reference value: 4.37%); type: functional
MDA-MB-231 [24] = assay: Induction of ROS generation in human MDA-MB-231 cells at 2.5 uM measured after 72 hrs by DCFH-DA staining based flow cytometry (reference value: 4.37%); type: functional
MDA-MB-231 [25] = assay: Induction of ROS generation in human MDA-MB-231 cells at 5 uM measured after 72 hrs by DCFH-DA staining based flow cytometry (reference value: 4.37%); type: functional
MDA-MB-231 [26] = assay: Induction of DNA damage in human MDA-MB-231 cells assessed as increase in generation of endogenous double strand DNA break adducts measured after 72 hrs by comet assay; type: functional, cell-based; conditions: dose 1.25-5 µM
MDA-MB-231 [27] = assay: Induction of DNA damage in human MDA-MB-231 cells assessed as increase in tail DNA measured after 72 hrs by comet assay; type: functional, cell-based; conditions: dose 1.25-5 µM
MDA-MB-231 [28] = assay: Inhibition of cell migration in human MDA-MB-231 cells measured after 24 hrs by scratch wound healing assay; type: functional, cell-based; conditions: dose 1.25-5 µM
MDA-MB-231 [29] = assay: Inhibition of cell invasion in human MDA-MB-231 cells at 1.25 to 5 uM measured after 24 hrs by transwell assay; type: functional, cell-based; conditions: dose 1.25-5 µM
MDA-MB-231 [30] = assay: Inhibition of cell adhesion in human MDA-MB-231 cells measured after 72 hrs by fluorescence microscopy; type: functional, cell-based; conditions: dose 1.25-5 µM

## COC(=O)[C@H](Cc1ccc(N(CCCl)CCCl)cc1)NC(=O)CCC(=O)OCc1cc2c(cn1)[nH]c1ccccc12
MCF7
  pIC50: < 4.70
MDA-MB-231 [1]
  pIC50: < 4.70
MCF-10A
  pIC50: < 4.40

## O=C(OCc1cc2c(cn1)[nH]c1ccccc12)c1ccc(N(CCCl)CCCl)cc1
MCF7
  pIC50: 5.64
MDA-MB-231 [1]
  pIC50: 5.02
MCF-10A
  pIC50: < 4.40

## Cc1nc(COC(=O)[C@H](Cc2ccc(N(CCCl)CCCl)cc2)NC=O)cc2c1[nH]c1ccccc12
MCF7
  pIC50: 5.75
MDA-MB-231 [1]
  pIC50: 5.30
MCF-10A
  pIC50: 4.65
MDA-MB-231 [2]
  Activity: 47.85%
MDA-MB-231 [3]
  Activity: 38.53%
MDA-MB-231 [4]
  Activity: 13.62%
MDA-MB-231 [5]
  Activity: 44.83%
MDA-MB-231 [6]
  Activity: 38.72%
MDA-MB-231 [7]
  Activity: 16.45%
MDA-MB-231 [8]
  Activity: 42.06%
MDA-MB-231 [9]
  Activity: 37.74%
MDA-MB-231 [10]
  Activity: 20.2%
MDA-MB-231 [11]
  viability at 1.25 µM: 78%
MDA-MB-231 [12]
  Activity: 8.77%
MDA-MB-231 [13]
  Activity: 9.71%
MDA-MB-231 [14]
  Activity: 3.49%
MDA-MB-231 [15]
  viability at 2.5 µM: 74.2%
MDA-MB-231 [16]
  Activity: 12.24%
MDA-MB-231 [17]
  Activity: 10.22%
MDA-MB-231 [18]
  Activity: 3.39%
MDA-MB-231 [19]
  viability at 5 µM: 48.5%
MDA-MB-231 [20]
  Activity: 23.28%
MDA-MB-231 [21]
  Activity: 22.85%
MDA-MB-231 [22]
  Activity: 5.32%
MDA-MB-231 [23]
  Activity: 17.2%
MDA-MB-231 [24]
  Activity: 20.33%
MDA-MB-231 [25]
  Activity: 47.15%
MDA-MB-231 [26]
  Activity: Dose-Dependent Effect
MDA-MB-231 [27]
  Activity: Dose-Dependent Effect
MDA-MB-231 [28]
  inhibition: Dose-Dependent Effect
MDA-MB-231 [29]
  inhibition: Active
MDA-MB-231 [30]
  inhibition: Dose-Dependent Effect

## COc1ccc(-c2nc(COC(=O)c3ccc(N(CCCl)CCCl)cc3)cc3c2[nH]c2ccccc23)cc1
MCF7
  pIC50: 5.63
MDA-MB-231 [1]
  pIC50: 4.84
MCF-10A
  pIC50: 4.45

## COc1ccc(-c2nc(COC(=O)[C@H](Cc3ccc(N(CCCl)CCCl)cc3)NC=O)cc3c2[nH]c2ccccc23)cc1
MCF7
  pIC50: 5.37
MDA-MB-231 [1]
  pIC50: 5.24
MCF-10A
  pIC50: 4.50

## COC(=O)[C@H](Cc1ccc(N(CCCl)CCCl)cc1)NC(=O)CCCC(=O)OCc1cc2c([nH]c3ccccc32)c(C)n1
MCF7
  pIC50: < 4.70
MDA-MB-231 [1]
  pIC50: < 4.70
MCF-10A
  pIC50: < 4.40

## COC(=O)[C@H](Cc1ccc(N(CCCl)CCCl)cc1)NC(=O)CCC(=O)OCc1cc2c([nH]c3ccccc32)c(C)n1
MCF7
  pIC50: < 4.70
MDA-MB-231 [1]
  pIC50: < 4.70
MCF-10A
  pIC50: < 4.40

## COC(=O)[C@H](Cc1ccc(N(CCCl)CCCl)cc1)NC(=O)CCC(=O)OCc1cc2c([nH]c3ccccc32)c(-c2ccc(OC)cc2)n1
MCF7
  pIC50: 4.77
MDA-MB-231 [1]
  pIC50: < 4.70
MCF-10A
  pIC50: < 4.40

## COc1cccc2c1C(=O)c1c(O)c3c(c(O)c1C2=O)C[C@@](O)(C(=O)CO)C[C@@H]3O[C@H]1C[C@H](N)[C@H](O)[C@H](C)O1 [DOXORUBICIN]
MDA-MB-231 [1]
  pIC50: 5.56

## OCc1cc2c(cn1)[nH]c1ccccc12
MCF7
  pIC50: < 4.70
MDA-MB-231 [1]
  pIC50: < 4.70
MCF-10A
  pIC50: < 4.40
